Here are results for four molecules from PMC7867085, “In Vitro and In Vivo Antitumor Activity of Indolo[2,3-b] Quinolines, Natural Product Analogs from Neocryptolepine Alkaloid” (Molecules, 2021).

Data set [1] deals with Ehrlich ascites carcinoma (EAC) cells. The experiment in a line: In vitro cytotoxic activity, trypan blue dye exclusion. Format: cell-based, mice. As to conditions: 3 h incubation at 37 °C. As to the method: The synthesized indoloquinoline analogs 6a–d were evaluated for their cytotoxic activity against Ehrlich ascites carcinoma (EAC), as depicted in Table 1. The EAC cells used in this study were supplied by National Cancer Institute, Cairo, Egypt. The cells were maintained in vivo in Swiss Albino female mice by intraperitoneal transplantation (0.2 mL of 2 × 10^6 cells/mL). EAC cells were aspirated from the peritoneal cavity of mice, washed with saline and given intraperitoneally to develop ascites tumor. Trypan blue dye exclusion technique was used to figure the viability percentage of EAC cells to assay the cytotoxic activity of the studied compounds. In brief, under completely sterile conditions, EAC cells were separated away from the mice abdomens. Hank’s balanced salt solution (HBSS) was used to wash the separated cells. Cells were put in a cooling centrifuge at 1500 rpm for 15 min; the produced granules were put back into suspension using HBSS, the mentioned steps were done in triplicate. Finally, a measured volume of RPMI 1640 was used to suspend the cells, followed by the addition of 10% fetal bovine serum, 10 µg/mL streptomycin and 100 U/mL penicillin. Consequently, the cell count was adjusted to 2 × 10^6 cells/mL from the prepared diluted cell suspension 0.2 mL was titrated in 96 flat-bottomed tissue culture plates. Serial concentrations of each tested compound were prepared and added in triplicate and incubated at 37 °C for 3 h in a 5% CO2 atmosphere. The IC50 parameter (half-maximum inhibitory concentration) was calculated using Trypan blue dye exclusion test, and then the cytotoxic effect was evaluated using control EAC cells. Thalidomide was used as a reference drug alongside the parent natural compound neocryptolepine I for comparison. Thalidomide was used as a reference drug because its mechanism of action is expected to be similar to the mechanism of action of neocryptolepine analogs as its anticancer action may be based on its antiangiogenic action, resulting from specific DNA intercalation as well as induce cell cycle arrest.
The percentage of EAC cell death of the synthesized derivatives was evaluated by trypan blue exclusion assay. In addition, the compounds 6a–d, as well as the reference drug thalidomide and the parent natural compound neocryptolepine (I), were evaluated through eight concentration levels. It is worth noting that this cytotoxicity was dose-dependent when compared to the reference drug, thalidomide and the control, which was treated with the corresponding dilutions of DMSO.
As a preparation step to perform cytotoxicity assay against the EAC cell line, thalidomide, parent neocryptolepine and the indoloquinoline compounds a 6a, 6b, 6c and 6d were dissolved in DMSO/saline (0.3:0.7) to prepare a solution of 10 mmol concentration. The stock solutions were stored at 4 °C and were used all over the assay. EAC cells were supplied by the National Cancer Institute, Cairo, Egypt. The cells were maintained in vivo in Swiss albino female mice by intraperitoneal transplantation (0.2 mL of 2 × 10^6 cells/mL). EAC cells were aspirated from the peritoneal cavity of mice, washed with saline, and given intraperitoneally to develop ascites tumor.
Trypan blue dye exclusion technique was used to figure the viability percentage of EAC cells to assay the cytotoxic activity of the studied compounds. In brief, under completely sterile conditions, EAC cells were separated away from the mice’s abdomen. Hank’s balanced salt solution (HBSS) was used to wash the separated cells. The cells were put in a cooling centrifuge at 1500 rpm for 15 min; the produced granules were put back into suspension using HBSS, the mentioned steps were done in triplicate. Finally, a measured volume of RPMI 1640 was used to suspend the cells, followed by the addition of 10% fetal bovine serum, 10 µg/mL streptomycin and 100 U/mL penicillin and the cell count was adjusted to 2 × 10^6 cells/mL. […]

The test system of data set [2] is normal mice (liver homogenate). In words: Lipid peroxidation and antioxidant enzymes in liver homogenate of normal mice. Format: in vivo, Swiss female albino mice. The settings on record: 100 mg/kg SC for 5 days. The text has this: Measuring antioxidant enzyme levels and lipid peroxidation was utilized to evaluate the pharmacological effect of indoloquinoline derivatives. The study group was divided into two subgroups, normal mice and tumor-bearing mice. Each subgroup is further subdivided into two groups, one group received indoloquinoline derivatives, and the other group was marked as a placebo group.
The eradicated liver was double washed first, with ice-cold normal saline then, with cold 0.15 mol/L Tris-HCl buffer (pH 7.4). The clean organ was dried and weighed, and used to prepare a 10% w/v homogenate in 0.15 mol/L Tris-HCl buffer. A portion of the prepared homogenate was centrifuged at 1500 rpm for 15 min at 4 °C [47] and used for estimating lipid peroxidation, SOD [48] and CAT [49] analysis was carried out using the supernatant.

In the case of `Cn1c2nc3ccccc3c-2c(Nc2ccc(Br)cc2F)c2ccccc21` [Compound 6a, N-(4-Bromo-2-fluorophenyl)-5-methyl-5H-indolo[2,3-b] Quinolin-11-amine], in data set [1] (Mus musculus, Ehrlich), the IC50 amounted to 0.17 nM. For the same molecule, in data set [2], the CAT is 6.5 ± 0.39 KU/mg Tissue/s, the “Lipid Peroxidation” value turned out to be 252.1 ± 7.2 nmol MDA/g Tissue and the SOD amounted to 139.4 ± 2.9 U/g Tissue.

“5-Methyl-N-(4-methylpiperazin-1-yl)-5H-indolo[2,3-b] Quinolin-11-amine [Compound 6d]”: in data set [1], the 50% inhibitory concentration (IC50) stood at 0.15 nM. Besides, in data set [2], the CAT is 6.1 ± 0.20 KU/mg Tissue/s, the “Lipid Peroxidation” value came out at 248.69 ± 5.5 nmol MDA/g Tissue and the SOD is given as 137.9 ± 3.9 U/g Tissue.

In turn, “5(5-Methyl-5H-indolo[2,3-b] quinolin-11-ylamino) Pyrimidine-2,4(1H,3H)-dione [Compound 6c]” showed an IC50 in data set [1] of 0.33 nM. Also, in data set [2], the CAT is 6.2 ± 0.30 KU/mg Tissue/s, the “Lipid Peroxidation” value came out at 251.68 ± 11.9 nmol MDA/g Tissue and the SOD came to 138.6 ± 6.0 U/g Tissue.

The molecule `Cn1c2nc3ccccc3c-2c(NCCc2c[nH]c3ccccc23)c2ccccc21` [Compound 6b, N-(2-(1H-Indol-3-yl)ethyl)-5-methyl-5H-indolo[2,3-b] Quinolin-11-amine] registered an IC50 in data set [1] (Mus musculus, Ehrlich) of 0.064 nM. In addition, in data set [2], the CAT is given as 5.7 ± 0.31 KU/mg Tissue/s, the “Lipid Peroxidation” value came to 247.96 ± 6.3 nmol MDA/g Tissue and the SOD came out at 140.2 ± 1.9 U/g Tissue.
